Test results from article PMC10257182, “Discovery of senolytics using machine learning” (Nature Communications, 2023).
Where a name gives a salt, the structure may show the parent alone. Read-outs that look alike come from different tables or passages of the source.

Legend:
Assay type in all cases: cell-based, human
[1] = test system: non-senescent control A549 cells; experiment: Nuclei count senolytic assay, TIS model, non-senescent control cells; conditions: Homo sapiens, A549, Control cells, mean, read-out: Mean % Cell Survival; for viability at 10 µM: log (dose) [M] -5; for viability at 4.68 µM: log (dose) [M] -5.33; for viability at 2.19 µM: log (dose) [M] -5.66; for viability at 1 µM: log (dose) [M] -6; for viability at 0.468 µM: log (dose) [M] -6.33; for viability at 0.219 µM: log (dose) [M] -6.66; for viability at 0.1 µM: log (dose) [M] -7; for viability at 0.0468 µM: log (dose) [M] -7.33; for viability at 0.0219 µM: log (dose) [M] -7.66; for viability at 0.01 µM: log (dose) [M] -8
Outline: (§1)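 Etoposide 100 μM, 48 h, + 3 d standard media → senescent A549; untreated A549 = controls. 24 h post-seeding, cpds 10 nM–10 μM final, 10-pt […], 72 h, n=3. Fix formaldehyde, permeabilise Triton-X100, Hoechst 2 μg/ml, image, count nuclei.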

[2] = test system: senescent A549 cells (etoposide-induced); experiment: Nuclei count senolytic assay, therapy-induced senescence (TIS) model, senescent cells; conditions: Homo sapiens, A549, Senescent cells, mean, read-out: Mean % Cell Survival; for viability at 10 µM: log (dose) [M] -5; for viability at 4.68 µM: log (dose) [M] -5.33; for viability at 2.19 µM: log (dose) [M] -5.66; for viability at 1 µM: log (dose) [M] -6; for viability at 0.468 µM: log (dose) [M] -6.33; for viability at 0.219 µM: log (dose) [M] -6.66; for viability at 0.1 µM: log (dose) [M] -7; for viability at 0.0468 µM: log (dose) [M] -7.33; for viability at 0.0219 µM: log (dose) [M] -7.66; for viability at 0.01 µM: log (dose) [M] -8
Outline: as §1

[3] = test system: senescent IMR90 ER:RAS cells (4-OHT-induced); experiment: Nuclei count (Hoechst, high content imaging) senolytic assay, oncogene-induced senescence (OIS) model, senescent cells; conditions: Homo sapiens
Outline: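 IMR90 ER:RAS (p14), ±4-OHT 100 nM; cpd 10 nM–10 μM, 10-pt […], 72 h, n=3. Fix formaldehyde, Triton X-100, Hoechst 2 μg/ml final. Readout: imaged nuclei count vs untreated; ouabain positive control.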

[4] = IMR-90, 72 h, Senescent, log (dose) [M] -5, 72 h, mean n=3 (Fig 3C), read-out: Mean % Cell Survival
[5] = IMR-90, 72 h, Senescent, log (dose) [M] -5.33, 72 h, mean n=3 (Fig 3C), read-out: Mean % Cell Survival
[6] = IMR-90, 72 h, Senescent, log (dose) [M] -5.66, 72 h, mean n=3 (Fig 3C), read-out: Mean % Cell Survival
[7] = IMR-90, 72 h, Senescent, log (dose) [M] -6, 72 h, mean n=3 (Fig 3C), read-out: Mean % Cell Survival
[8] = IMR-90, 72 h, Senescent, log (dose) [M] -6.33, 72 h, mean n=3 (Fig 3C), read-out: Mean % Cell Survival
[9] = IMR-90, 72 h, Senescent, log (dose) [M] -6.66, 72 h, mean n=3 (Fig 3C), read-out: Mean % Cell Survival
[10] = IMR-90, 72 h, Senescent, log (dose) [M] -7, 72 h, mean n=3 (Fig 3C), read-out: Mean % Cell Survival
[11] = IMR-90, 72 h, Senescent, log (dose) [M] -7.33, 72 h, mean n=3 (Fig 3C), read-out: Mean % Cell Survival
[12] = IMR-90, 72 h, Senescent, log (dose) [M] -7.66, 72 h, mean n=3 (Fig 3C), read-out: Mean % Cell Survival
[13] = IMR-90, 72 h, Senescent, log (dose) [M] -8, 72 h, mean n=3 (Fig 3C), read-out: Mean % Cell Survival

CC[C@]1(O)C[C@@H]2CN(CCc3c([nH]c4ccccc34)[C@@](C(=O)OC)(c3cc4c(cc3OC)N(C)[C@H]3[C@@](O)(C(=O)OC)[C@H](OC(C)=O)[C@]5(CC)C=CCN6CC[C@]43[C@@H]65)C2)C1 [Vinblastine sulfate, vinblastine sulfate, reference compound]
viability at 10 µM [1]: 47.4% | viability at 4.68 µM [1]: 46.3% | viability at 2.19 µM [1]: 48.5% | viability at 1 µM [1]: 47% | viability at 0.468 µM [1]: 45.9% | viability at 0.219 µM [1]: 49.9% | viability at 0.1 µM [1]: 52.9% | viability at 0.0468 µM [1]: 66.7% | viability at 0.0219 µM [1]: 69.2% | viability at 0.01 µM [1]: 78.7% | viability at 10 µM [2]: 88.8% | viability at 4.68 µM [2]: 83.2% | viability at 2.19 µM [2]: 90.4% | viability at 1 µM [2]: 72.2% | viability at 0.468 µM [2]: 92.1% | viability at 0.219 µM [2]: 97.3% | viability at 0.1 µM [2]: 103% | viability at 0.0468 µM [2]: 99.9% | viability at 0.0219 µM [2]: 103% | viability at 0.01 µM [2]: 104% | viability at 10 µM [3, 4]: 54.4% | viability at 4.677 µM [3, 5]: 77.2% | viability at 2.188 µM [3, 6]: 58.1% | viability at 1 µM [3, 7]: 67.1% | viability at 0.4677 µM [3, 8]: 61.7% | viability at 0.2188 µM [3, 9]: 87% | viability at 0.1 µM [3, 10]: 73.9% | viability at 0.04677 µM [3, 11]: 108% | viability at 0.02188 µM [3, 12]: 59.7% | viability at 0.01 µM [3, 13]: 92.6% | viability at 1 µM ([3]; IMR-90, Senescent cells, log (dose) [M] -6, individual replicates, SUP FIG 4C, read-out: % Cell Survival): 70.9% | viability at 10 µM ([3]; IMR-90, Senescent, log (dose) [M] -5, read-out: % Cell Survival): 89.1% | viability at 4.677 µM ([3]; IMR-90, Senescent, log (dose) [M] -5.33, read-out: % Cell Survival): 88% | viability at 2.188 µM ([3]; IMR-90, Senescent, log (dose) [M] -5.66, read-out: % Cell Survival): 86.9% | viability at 1 µM ([3]; IMR-90, Senescent, log (dose) [M] -6, read-out: % Cell Survival): 68.2% | viability at 0.4677 µM ([3]; IMR-90, Senescent, log (dose) [M] -6.33, read-out: % Cell Survival): 96.2% | viability at 0.2188 µM ([3]; IMR-90, Senescent, log (dose) [M] -6.66, read-out: % Cell Survival): 103% | viability at 0.1 µM ([3]; IMR-90, Senescent, log (dose) [M] -7, read-out: % Cell Survival): 109% | viability at 0.04677 µM ([3]; IMR-90, Senescent, log (dose) [M] -7.33, read-out: % Cell Survival): 92.4% | viability at 0.02188 µM ([3]; IMR-90, Senescent, log (dose) [M] -7.66, read-out: % Cell Survival): 112% | viability at 0.01 µM ([3]; IMR-90, Senescent, log (dose) [M] -8, read-out: % Cell Survival): 114%

CO[C@H]1C[C@@H]2CC[C@@H](C)[C@@](O)(O2)C(=O)C(=O)N2CCCC[C@H]2C(=O)O[C@H]([C@H](C)C[C@@H]2CC[C@H](n3cnnn3)[C@H](OC)C2)CC(=O)[C@H](C)/C=C(\C)[C@@H](O)[C@@H](OC)C(=O)[C@H](C)C[C@H](C)/C=C/C=C/C=C/1C [Zotarolimus, zotarolimus, reference compound]
viability at 10 µM [1]: 84.8% | viability at 4.68 µM [1]: 92.5% | viability at 2.19 µM [1]: 84.4% | viability at 1 µM [1]: 76.7% | viability at 0.468 µM [1]: 92.9% | viability at 0.219 µM [1]: 91% | viability at 0.1 µM [1]: 95.4% | viability at 0.0468 µM [1]: 98.8% | viability at 0.0219 µM [1]: 96.8% | viability at 0.01 µM [1]: 109% | viability at 10 µM [2]: 138% | viability at 4.68 µM [2]: 160% | viability at 2.19 µM [2]: 123% | viability at 1 µM [2]: 143% | viability at 0.468 µM [2]: 130% | viability at 0.219 µM [2]: 174% | viability at 0.1 µM [2]: 155% | viability at 0.0468 µM [2]: 136% | viability at 0.0219 µM [2]: 127% | viability at 0.01 µM [2]: 84.3% | viability at 10 µM [3, 4]: 111% | viability at 4.677 µM [3, 5]: 115% | viability at 2.188 µM [3, 6]: 102% | viability at 1 µM [3, 7]: 113% | viability at 0.4677 µM [3, 8]: 95.4% | viability at 0.2188 µM [3, 9]: 95.9% | viability at 0.1 µM [3, 10]: 88.4% | viability at 0.04677 µM [3, 11]: 106% | viability at 0.02188 µM [3, 12]: 116% | viability at 0.01 µM [3, 13]: 104%
